For 3 compounds, EC50 and stability results are on record in patent publication US20240398893A1, “ANTI-CORONAVIRUS POLYPEPTIDE AS WELL AS DERIVATIVE AND APPLICATION THEREOF” (priority 2021, published 2024).

Series [1] deals with pseudovirus of the SARS-COV-2 prototype.
For series [2] the following is noted: during purification process of solid-phase synthesis.

What is called EC50 is the concentration at which the effect is half-maximal. Read a low EC50 as higher potency in that assay. Consider `CC[C@H](C)[C@H](NC(=O)CNC(=O)[C@H](CO)NC(=O)[C@@H](NC(=O)[C@H](CC(=O)O)NC(=O)CNC(=O)[C@H](Cc1ccccc1)NC(=O)[C@H](CCCCN)NC(=O)[C@@H](N)C(C)C)[C@@H](C)CC)C(=O)N[C@@H](CC(N)=O)C(=O)N[C@@H](C)C(=O)N[C@@H](CO)C(=O)N[C@H](C(=O)N[C@H](C(=O)N[C@@H](CC(N)=O)C(=O)N[C@H](C(=O)N[C@@H](CCCCN)C(=O)N[C@@H](CCC(=O)O)C(=O)N[C@@H](CCC(=O)O)C(=O)N[C@H](C(=O)N[C@@H](CC(=O)O)C(=O)N[C@@H](CCCNC(=N)N)C(=O)N[C@@H](CC(C)C)C(=O)N[C@@H](Cc1ccc(O)cc1)C(=O)N[C@@H](CCC(=O)O)C(=O)N[C@H](C(=O)N[C@H](C(=O)N[C@@H](CCCCN)C(=O)N[C@@H](CC(N)=O)C(=O)N[C@@H](CC(C)C)C(=O)N[C@@H](CC(N)=O)C(=O)N[C@@H](CCC(=O)O)C(=O)N[C@@H](CO)C(=O)N[C@@H](CC(C)C)C(=O)N[C@H](C(=O)N[C@@H](CC(=O)O)C(=O)N[C@@H](CC(C)C)C(=O)N[C@@H](CCC(N)=O)C(=O)N[C@@H](CCC(=O)O)C(=O)N[C@@H](CC(C)C)C(=O)O)[C@@H](C)CC)C(C)C)C(C)C)[C@@H](C)CC)[C@@H](C)CC)C(C)C)C(C)C` [P3-3], for which, in series [1], the midpoint of the response, the EC50, lay at 501 nM.

Turning to “DLGDISGINASVVNIQKEIDRLNEVAKNLNESLIDLQELGSGSGC(CH2CONH(PEG)4CH2COOChol)-NH2 [P3-2-GS-PEG-Chol-1]”, the stability entry in series [2] is recorded as “poor stability”.

Take “DLGDISGINASVVNIQKEIDRLNEVAKNLNESLIDLQELGSGSGC(CH2COOChol)-NH2 [P3-2-GS-Chol-1]”: the stability entry in series [2] is on record as “poor stability”.
